Our source for the TGI values is PubChem BioAssay (NCI).

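Cells were grown in 96-well plates and exposed to each compound for 48 hours at five concentrations; endpoints were interpolated linearly between bracketing concentrations, or set to the highest concentration if not reached. TGI denotes the concentration required for complete inhibition of growth.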

Test systems include DLD-1 colon; DMS 114 small cell lung; HOP-18 NSCLC; KM20L2 colon; LXFL 529 NSCLC; RXF-631 renal; SNB-78 CNS; XF 498 CNS; P388 leukemia; P388/ADR leukemia; SN12K1 renal.
Holding throughout (assay): NCI tumour cell line growth inhibition, 48 h

As to `CC(C)CCC[C@@H](C)C1CCC2[C@@H]3CC=C4C[C@@H](C(=O)NCC[N+](C)(C)CCCS(=O)(=O)[O-])CC[C@]4(C)C3CC[C@@]21C` (stereo partly specified), the TGI in the test on DLD-1 colon is 49.7 µM; in the test on DMS 114 small cell lung, 35.7 µM; in the test with HOP-18 NSCLC, 35.8 µM; with KM20L2 colon, 30.4 µM; in the test with LXFL 529 NSCLC, 33.3 µM; with RXF-631 renal, 34.6 µM. The same molecule registered a TGI in the test with SNB-78 CNS of 37.4 µM.
In the case of `O=c1[nH]c2cc([N+](=O)[O-])ccc2nc1/C(=N/Nc1ccccc1)C(O)c1ccc(C(O)/C(=N\Nc2ccccc2)c2cnc3cc([N+](=O)[O-])ccc3n2)cc1` (stereo unspecified), the TGI in the test with DMS 114 small cell lung and in the test on KM20L2 colon was over 100 µM in each case.
Turning to `CC(C)(C)NC(=O)NC12CC3CC(CC(F)(C3)C1)C2`, the TGI in the test on DLD-1 colon, with DMS 114 small cell lung, in the test on KM20L2 colon, in the test with LXFL 529 NSCLC, with RXF-631 renal and in the test on SNB-78 CNS was over 100 µM throughout. Further, the TGI with XF 498 CNS is over 100 µM.
For the molecule `c1ccc(C2=NOC3(c4ccccc4)SC4CCCCC4CN23)cc1` (stereo unspecified), the TGI in the test on DLD-1 colon was over 100 µM; with DMS 114 small cell lung, 30.5 µM; in the test with HOP-18 NSCLC, over 100 µM; with KM20L2 colon it was over 100 µM; in the test on LXFL 529 NSCLC, 27 µM; with SNB-78 CNS, 91.7 µM. The same molecule had a TGI in the test with XF 498 CNS of over 100 µM.
With `COc1ccc(C2Oc3cc(OC)c(O)c(C)c3[C@H]2C)cc1` (stereo partly specified), the TGI in the test with DLD-1 colon, in the test on DMS 114 small cell lung, with HOP-18 NSCLC, with KM20L2 colon, with LXFL 529 NSCLC and in the test with SNB-78 CNS was over 100 µM throughout.
With `C=C1C(=O)OC2/C=C(/C)C3CC(O)C(C)(CC(OC(=O)/C(C)=C/C)C12)O3` (stereo unspecified), the TGI with DLD-1 colon stood at 3.12 µM; with DMS 114 small cell lung, 19.8 µM; in the test on HOP-18 NSCLC, 31.2 µM; in the test on KM20L2 colon, 13.1 µM; with LXFL 529 NSCLC, 5.84 µM; with SNB-78 CNS, 7.7 µM. The TGI with XF 498 CNS worked out at 17.2 µM.
Consider `O=C(O)CS`, for which the TGI in the test on DLD-1 colon, with DMS 114 small cell lung, with KM20L2 colon, in the test with LXFL 529 NSCLC, in the test on SNB-78 CNS and in the test with XF 498 CNS was over 100 µM each time.
Regarding `CS(=O)(=O)c1c(N)c2nc(Cl)cn2c2nc3ccccc3nc12`, the TGI with DLD-1 colon, in the test with DMS 114 small cell lung, in the test on KM20L2 colon, in the test on LXFL 529 NSCLC, in the test with RXF-631 renal and in the test with SNB-78 CNS was over 100 µM in each case. The TGI in the test on XF 498 CNS was over 100 µM.
On to `Clc1ccccc1C1=NN(c2ccccc2)C2c3ccccc3OCC12` (stereo unspecified), for which the TGI in the test with DLD-1 colon, in the test with DMS 114 small cell lung, in the test with HOP-18 NSCLC, with KM20L2 colon, in the test on LXFL 529 NSCLC and in the test on RXF-631 renal was over 100 µM in each case. Further, the TGI in the test with SNB-78 CNS and in the test on XF 498 CNS was over 100 µM throughout.
Regarding `CCN(CC)CCCNc1ncc(C)c2[nH]c3ccncc3c12`, the TGI in the test with DLD-1 colon is over 79.9 µM; in the test on DMS 114 small cell lung, 24.1 µM; with KM20L2 colon, 31 µM; with P388 leukemia it was 15.3 µM; in the test with P388/ADR leukemia it was over 100 µM; with SN12K1 renal it was 19.9 µM. Besides, the TGI is over 100 µM in the test on SNB-78 CNS and 24 µM in the test on XF 498 CNS.
Turning to `CCN(CC)CCCC(C)Nc1ccnc2ccc3nn(C)nc3c12` (stereo unspecified), the TGI with DLD-1 colon, in the test with HOP-18 NSCLC, in the test on KM20L2 colon, in the test with LXFL 529 NSCLC and in the test on SNB-78 CNS was over 100 µM throughout.
Turning to `CN(CCO)c1nc(N)cc(=O)[nH]1`, the TGI with DLD-1 colon, with DMS 114 small cell lung, in the test with HOP-18 NSCLC, in the test on KM20L2 colon, in the test with LXFL 529 NSCLC and with SNB-78 CNS was over 100 µM in each case. Moreover, the TGI in the test on XF 498 CNS was over 100 µM.
Take `S=P1(N2CCCCC2)Oc2ccc3ccccc3c2-c2c(ccc3ccccc23)O1`: the TGI in the test with DLD-1 colon, in the test with DMS 114 small cell lung, in the test on HOP-18 NSCLC, in the test with KM20L2 colon, with P388 leukemia and with P388/ADR leukemia was over 100 µM each time. Further, the TGI in the test with SN12K1 renal, in the test on SNB-78 CNS and with XF 498 CNS was over 100 µM in each case.
